According to publication PMC4838304, “Effective Design of Multifunctional Peptides by Combining Compatible Functions” (PLoS Computational Biology, 2016):
Ends that are not written are not given here.

Legend:
[1] = tested on: Escherichia coli strain DH5α; experiment: microbe, parasite or virus in culture; assay type: cell-based; details: for MIC: DH5α, 24 h, read-out: E. coli MIC for 50% inhibition
Description: If CPP, DNA binding and AMP activities are compatible, the designed peptides should inhibit bacterial growth. Here we exposed E. coli DH5α cells to varying low concentrations of the designed peptides as well as several controls (see Fig 4). […] To test whether α-factor was important for AMP activity we also tested pure α-factor, pure NLS, the optimized NLS fitting CPP rules (NLS-CE) and the Iztli-1 peptide, a previously reported peptide with an embedded α-factor specifically designed to have antibacterial activity. […] A linear trend could be observed between concentration and growth inhibition (regression lines with standard deviations shown in Fig 6). […] The minimal inhibitory concentrations for E. coli are reported in Table 2 (growth curves are shown in S4 Fig).
Fig 6 Antibacterial activity. DH5α E. coli cells were treated with varying concentrations of peptides ranging from 0 to 16 μM for the peptides and 0 to 48 μM for Ampicillin. The relative area under the growth curve measured the growth inhibition. Measurements from four repetitions distributed onto two different plates are shown as dots colored by their respective concentrations. Linear regressions are shown as blue lines and their respective standard errors as blue shades. Dashed lines indicate the mean area under the curve for the H2O controls and its 50% value respectively. Minimal inhibitory concentrations to achieve 50% or 100% of cell growth inhibition are reported.
Escherichia coli strain DH5α was grown for 12 hours to mid-log phase and diluted to 8·10^5 cells/ml by using the reference OD obtained by absorption spectroscopy. Each sample 100μL culture was treated with 50μL solution containing the respective peptide in the desired concentration or water in the case of the controls. Growth curves were measured on two 96 well half area plates with two replicates each followed for 24h using a plate reader (Synergy, USA). In order to minimize plate-specific effects due to variations in loading time or initial cell numbers, different plates measurements were normalized by the time-point where the water control samples reached their half-maximal OD before combining. The respective minimum from each growth curve was subtracted from the normalized data from individual or combined plates. Areas under the curves were obtained by applying a linear interpolation to the OD curves, which was then integrated exactly. Growth rates were obtained by log-transforming the growth curves, identifying the exponential phase by the linear parts in that log-transformation (OD600 between 0.05 and 0.5) and performing a linear regression in the exponential phase with the slope denoting the respective growth rate. All mentioned methodology was implemented in R (www.r-project.org) and is available as open source at http://github.com/cdiener/dcf.
Using the slope of the linear regressions determined in these experiments, we estimated the minimal inhibitory concentration (MIC) for E. coli of our 3 CPP designed peptides (α-NLS-C, NLS-α-CE and chimera) and tested it experimentally.

[2] = tested on: pheromone-signaling pathway (Fus1-eGFP) in MATa cells; experiment: Pheromone signaling assay, Fus1-GFP expression and shmoo phenotype; assay type: cell-based, Saccharomyces cerevisiae; details: BY4741 fus1::eGFP, 60 μM peptide (20 μM for α-factor), 3h
Description: Finally, the activity of the α-factor embedded in the peptides was evaluated by activation of the pheromone-signaling pathway in MATa cells of S. cerevisiae. We monitored the pheromone signaling activity by following the expression of the GFP-labeled Fus1 protein. Fus1 is among the proteins with the highest pheromone-induced expression and is required for cell-cell fusion during mating. […] The observed phenotype was consistent with the activation of signaling showing a mating protrusion, often called “shmoo” as well as the absence of budding due to inhibition of the Cdc28 cyclin [35, 36].
Fig 5 Pheromone activity. The pheromone signaling pathway is confirmed by the expression of Fus1-GFP, characteristic “shmoo” phenotype and the absence of budding observed in differential interference contrast (DIC) bright field. Concentrations were 20 μM for α-factor and 60 μM for all other peptides. The negative control was water without any peptide.
Pheromone signaling induction in Saccharomyces cerevisiae was measured by induction of eGFP fluorescence in a BY4741 strain containing the Fus1-eGFP construct in place of the wild type Fus1 (MATa his3Δ1 leu2Δ0 met15Δ0 ura3Δ0 fus1::eGFP HIS3MX6, obtained from the yeast GFP collection). The BY4741 fus1::eGFP strain was grown overnight in YPD to mid-log phase and diluted to 10^6 cells/mL. Samples were treated with the respective peptide concentrations and incubated for 3h before mixing 1:1 with low-diffusivity agarose suspended on a covered glass slide. Images were taken with an Olympus FV10 confocal microscope using a 60x objective with […]. Images were analyzed using Fiji (www.fiji.sc). The only modifications applied to the images were separation of the bright field and GFP channels, adjustment of brightness and contrast to 50% and addition of scale bars.

BY4741 yeast cells = experiment: Internalization assay in yeast, confocal microscopy; assay type: cell-based, Saccharomyces cerevisiae; details: TAMRA-labeled versions, 60 μM, BY4741, pictures at 0, 10 and 20 min
Description: We first evaluated whether the designed peptides retained the activity of the templates. The presence of the NLS sequence may locate peptides in the nuclei of cells; for that to happen first the peptides have to be internalized. […] For yeast cells, confocal microscopy was used to evaluate CPP activity in our peptides (see Fig 2).
Fig 2 Designed peptides internalized into yeast cells. (A-F) Internalization assays in BY4741 yeast cells for peptide controls where Arg and Lys residues were replaced by Glu residues (A-C) and the original peptides (D-F). All peptides were used at 60 μM (final concentration) and labeled with the TAMRA fluorophore (see Table 1 and Materials and Methods for further details).
All 6 fluorogenic peptides (TAMRA-peptides, see Table 1) were prepared to 600μM in water as a 10X stock solution. Although all the peptides were apparently soluble in water, they all formed aggregates under the microscope. […] These samples were observed under a multi-photon confocal microscope (Olympus FV1000) and pictures were recorded at 0, 10 and 20 min after the peptide addition. […] Bright field images were chosen from the in-focus z-stack, whereas TAMRA images denote the average fluorescence across the entire z-stack to obtain the fluorescence inside the entire cell volume. Images were analyzed using Fiji (http://fiji.sc/Downloads#Fiji).

[3] = E. coli DH5α, peptides 0 to 16 μM

FRKWRRKPKKKRKVWWRKVKRRWHWLQLKPGQPMY [NLS-α-CE]
MIC [1]: <2 µM
concentration abolishing E. coli growth completely [1, 3]: 2 µM
pheromone signaling activity (Fus1-GFP expression, phenotype) [2]: partial shmoo-like phenotypes
internalization into yeast cells (BY4741 yeast cells): quickly accumulate in the cell membrane and inside the yeast cells

KRRWRFVWMNPKKKRKVPPWPYLLWWHWLQLKPGQPMY [chimera]
MIC [1]: 4 µM
concentration showing partial growth inhibition [1, 3]: 2 µM
pheromone signaling activity (Fus1-GFP expression, phenotype) [2]: partial shmoo-like phenotypes
internalization into yeast cells (BY4741 yeast cells): quickly accumulate in the cell membrane and inside the yeast cells
